Tests used:
[1] = depot formation at the injection site after intramuscular injection in goats; assay type: in vivo, goat
Experimental: An injection site depot from another goat to which free Samorin in aqueous solution was administered by the same route and at the same dosage as that from this Example was noted to be more diffuse.
Liposomal Berenil was recovered from each depot.

[2] = test system: trypanosomiasis; details: free drug, cited from earlier work; for period of protection (prophylaxis): Samorin at 0.5-1.0 mg/kg, dependent on dosage and tsetse fly challenge
[3] = cited from earlier work; for side effects: free drug, 1 mg/kg for homidium and 0.5-1.0 mg/kg for Samorin
[4] = free drug in aqueous solution; cited from earlier work

Row | SMILES | period of protection (prophylaxis) [2] | side effects [3] | also measured
1 | N=C(N)c1ccc(N=NNc2ccc(C(=N)N)cc2)cc1 [Berenil, diminazene aceturate] | a few days only | – | depot at the injection site ([1]; goat, intramuscular, 3.5 mg/kg live weight (calculated as active ingredient)): no indication of a depot
2 | CC[n+]1c(-c2ccccc2)c2cc(N)ccc2c2ccc(N)cc21 [Homidium chloride, 2,7-diamino-9-phenyl-10-ethylphenanthridinium] | ≤ 60 days | – | –
3 | CC[n+]1c(-c2ccccc2)c2cc(NN=Nc3cccc(C(=N)N)c3)ccc2c2ccc(N)cc21.Cl.[Cl-] [Samorin, 8-[(m-amidinophenylazo)amino]-3-amino-5-ethyl-6-phenylphenanthridinium chloride hydrochloride] | 60 to 120 days | reaction by the injected tissue to the drug | depot at the injection site ([1]; goat culled 15 days after intramuscular administration, 1 mg/kg live weight Samorin): more diffuse; dosage with therapeutic trypanocidal action [2]: 0.25 mg/kg
4 | CC[n+]1c(-c2ccccc2)c2cc(N)ccc2c2ccc(N)cc21 [homidium, 2,7-diamino-9-phenyl-10-ethylphenanthridinium] | – | infrequent | drug depots after administration of free drug ([3]; intramuscular, free drug in aqueous solution): diffuse staining of muscle tissue
5 | CC[n+]1c(-c2ccccc2)c2cc(N/N=N/c3cccc(C(=N)N)c3)ccc2c2ccc(N)cc21.[Cl-] [isometamidium chloride] | – | – | stability in aqueous solution [4]: rapid lability
